Reference: publication PMC5384001 (Scientific Reports, 2017)

Assays:
[1] = molecular target: T1, GluD2-Lc(D542Y)-(HS2)GluN1 (Rattus norvegicus, UniProt Q63226, A654T/A766F/D542Y/D767R/N763E/R768S/T764L/V761T/V765F); assay: Two-electrode voltage clamp in Xenopus oocytes, inhibition of spontaneous currents; assay type: cell-based
T1 construct: the function of full-length receptors as well, we introduced them into the GluD2 lurcher mutant (GluD2-Lc); expressed in transfected cells; host or cells: Xenopus laevis oocytes injected with cRNA
T1 sequence (Q63226 24-1007 D542Y/A654T/V761T/N763E/T764L/V765F/A766F/D767R/R768S): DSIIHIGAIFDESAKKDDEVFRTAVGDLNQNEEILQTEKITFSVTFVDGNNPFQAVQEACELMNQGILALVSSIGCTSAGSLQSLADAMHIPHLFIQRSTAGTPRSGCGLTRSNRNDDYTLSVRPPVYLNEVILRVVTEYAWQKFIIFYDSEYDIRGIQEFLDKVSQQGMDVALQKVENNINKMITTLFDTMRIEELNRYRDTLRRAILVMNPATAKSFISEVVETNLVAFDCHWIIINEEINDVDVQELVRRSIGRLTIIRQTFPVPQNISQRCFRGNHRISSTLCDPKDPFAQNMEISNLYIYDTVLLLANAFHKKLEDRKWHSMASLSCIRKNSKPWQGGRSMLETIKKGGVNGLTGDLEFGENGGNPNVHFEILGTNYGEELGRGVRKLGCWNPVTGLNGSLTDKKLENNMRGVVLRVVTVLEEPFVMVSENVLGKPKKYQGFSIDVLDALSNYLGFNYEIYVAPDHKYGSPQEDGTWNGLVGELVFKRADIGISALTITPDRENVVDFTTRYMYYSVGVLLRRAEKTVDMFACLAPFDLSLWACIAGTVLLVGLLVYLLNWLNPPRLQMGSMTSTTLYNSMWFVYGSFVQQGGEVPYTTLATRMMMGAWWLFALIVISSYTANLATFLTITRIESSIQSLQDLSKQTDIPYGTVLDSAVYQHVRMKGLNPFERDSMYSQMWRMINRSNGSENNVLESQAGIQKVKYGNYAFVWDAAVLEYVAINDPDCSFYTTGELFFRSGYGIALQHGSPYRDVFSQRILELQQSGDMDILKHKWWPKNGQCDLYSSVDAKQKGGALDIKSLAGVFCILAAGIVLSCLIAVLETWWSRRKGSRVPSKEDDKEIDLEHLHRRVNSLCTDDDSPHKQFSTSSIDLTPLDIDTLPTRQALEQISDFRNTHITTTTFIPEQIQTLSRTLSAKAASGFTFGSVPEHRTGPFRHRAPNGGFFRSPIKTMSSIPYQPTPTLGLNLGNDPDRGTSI
Description: All cDNAs for expression in Xenopus oocytes were cloned into the vector pSGEM[30]. Point mutants of GluD2-Lc were constructed by overlap extension PCR with mutagenic oligonucleotide primers. The GluD2-Lc-(H)GluN1 chimera was constructed by transferring the S1- and S2-encoding sequences from GluD2-LBD-(H)GluN1 to GluD2-Lc via overlap extension PCR using tail primers. The S1 and S2 sequences were transferred separately, yielding GluD2-Lc-(HS1)GluN1 and GluD2-Lc-(HS2)GluN1 constructs. GluD2-Lc-(H)GluN1 was then produced from these by another overlap extension PCR. Complementary RNA (cRNA) for injection into oocytes was synthesised from 1 μg of linearised template DNA with the mMESSAGE mMACHINE in vitro transcription kit (Ambion, Austin, TX, USA).
Oocytes were obtained by surgically removing parts of the ovaries from Xenopus laevis (Nasco, Fort Atkinson, WI, USA) anaesthetised with 1.5 g/L 3-aminobenzoic acid ethylester (Sigma, Taufkirchen, Germany). The ovary clippings were digested with 784 U/mL (4 mg/mL) collagenase type I (Worthington, Lakewood, NJ, USA) in Ca^2+-free Barth’s solution (88 mM NaCl, 1.1 mM KCl, 2.4 mM NaHCO3, 0.8 mM MgSO4, 15 mM HEPES-NaOH, pH 7.6) with gentle agitation for 1.5–2 h at 20 °C to remove the follicular cell layer. After stopping the collagenase digestion by washing with Barth’s solution (88 mM NaCl, 1.1 mM KCl, 2.4 mM NaHCO3, 0.3 mM Ca(NO3)2, 0.4 mM CaCl2, 0.8 mM MgSO4, 15 mM HEPES-NaOH, pH 7.6), defolliculated oocytes of stages V and VI were selected and maintained at 16 °C in Barth’s solution supplemented with 100 μg/mL gentamicin, 40 μg/mL streptomycin, and 63 μg/mL penicillin. Oocytes were injected with 11 ng cRNA (10 ng of each cRNA for co-expression of GluN1 and GluN2A) using a nanoliter injector (WPI, Sarasota, FL, USA). Four days after cRNA injection, current responses were recorded under voltage clamp at –70 mV with a Turbo Tec-10CD amplifier (npi electronic, Tamm, Germany) controlled by Patchmaster software (HEKA, Lambrecht, Germany). Currents were filtered with a 20 Hz low-pass filter and then digitised with a sampling rate of 50 Hz. Recording electrodes were pulled from borosilicate glass (Hilgenberg, Malsfeld, Germany) with an L/M-3P-A vertical pipette puller (List-Medical), filled with 3 M KCl, and had resistances of 0.5–5 MΩ (voltage electrode) or 0.5–1.5 MΩ (current electrode). Recordings were performed in a 50 μL chamber under constant superfusion with extracellular solution at a flow rate of 3–5 mL/min. […] Finally, Ba-NFR and then NMDGR were applied again to check for reversibility.

parallel fiber EPSCs = details: inhibitory effect on parallel fiber EPSCs; read-out: apparent EC50; cited from earlier work

Which results are given for N[C@H](CO)C(=O)O [D-serine]?
D-serine efficacy Mean ± SEM ([1]; fraction of spontaneous current inhibited by D-serine): –3.4 ± 0.5%; sensitivity to D-serine ([1]; inhibition of spontaneous currents): insensitive; EC50 (parallel fiber EPSCs): 147 µM
